Results from ChEMBL document CHEMBL3046023, “Synthesis, in vitro cytotoxicity, and anti-microbial studies of 1,4-bis(4-substituted-5-mercapto-1,2,4-triazol-3-yl)butanes” (Med Chem Res, 2012).
Values after ≈ are worked out from the molar mass of the structure shown.

What was measured:
HT-29 = test: Cytotoxicity against Homo sapiens (human) HT-29 cells after 72 hr by MTT assay; type: functional, cell-based; settings: HT-29, 72 h
Pseudomonas aeruginosa = test: Antibacterial activity against Pseudomonas aeruginosa ATCC 27853 after 24 hr by serial dilution method; type: functional; settings: ATCC 27853, 24 h
Bacillus subtilis = test: Antibacterial activity against Bacillus subtilis ATCC 6633 after 24 hr by serial dilution method; type: functional; settings: ATCC 6633, 24 h
Escherichia coli = test: Antibacterial activity against Escherichia coli ATCC 25922 after 24 hr by serial dilution method; type: functional; settings: ATCC 25922, 24 h
Staphylococcus aureus = test: Antibacterial activity against Staphylococcus aureus ATCC 25923 after 24 hr by serial dilution method; type: functional; settings: ATCC 25923, 24 h
A549 = test: Cytotoxicity against Homo sapiens (human) A549 cells after 72 hr by MTT assay; type: functional, cell-based; settings: A549, 72 h
MDA-MB-231 = test: Cytotoxicity against Homo sapiens (human) MDA-MB-231 cells after 72 hr by MTT assay; type: functional, cell-based; settings: MDA-MB-231, 72 h

Compound | IC50 (HT-29) | MIC (Pseudomonas aeruginosa) | MIC (Bacillus subtilis) | MIC (Escherichia coli) | MIC (Staphylococcus aureus) | IC50 (A549) | IC50 (MDA-MB-231)
CCOC(=O)CSc1nnc(CCCCc2nnc(SCC(=O)OCC)n2-c2cccc(C)c2)n1-c1cccc(C)c1 | 25.8 µM | 100 mg/L (≈ 164 µM) | 50 mg/L (≈ 82.1 µM) | 50 mg/L (≈ 82.1 µM) | 100 mg/L (≈ 164 µM) | 23.3 µM | 25.2 µM
Cc1cccc(-n2c(CCCCc3nnc(SCC(=O)NN)n3-c3cccc(C)c3)nnc2SCC(=O)NN)c1 | 38.2 µM |  | 25 mg/L (≈ 43 µM) | 25 mg/L (≈ 43 µM) | 25 mg/L (≈ 43 µM) | 39.1 µM | 40.2 µM
CCOc1ccc(-n2c(CCCCc3nnc(SC(=O)N(CC)CC)n3-c3ccc(OCC)cc3)nnc2SC(=O)N(CC)CC)cc1 | 75 µM |  | 50 mg/L (≈ 71.9 µM) | 100 mg/L (≈ 144 µM) |  | 51.9 µM | 71.6 µM
CCN(CC)C(=O)Sc1nnc(CCCCc2nnc(SC(=O)N(CC)CC)n2-c2cccc(C)c2)n1-c1cccc(C)c1 | 10.2 µM | 25 mg/L (≈ 39.4 µM) | 25 mg/L (≈ 39.4 µM) | 12.5 mg/L (≈ 19.7 µM) | 50 mg/L (≈ 78.8 µM) | 15.2 µM | 17.2 µM
CCOC(=O)CSc1nnc(CCCCc2nnc(SCC(=O)OCC)n2-c2ccc(C)cc2)n1-c1ccc(C)cc1 | 13.5 µM | 100 mg/L (≈ 164 µM) | 100 mg/L (≈ 164 µM) | 100 mg/L (≈ 164 µM) | 100 mg/L (≈ 164 µM) | 9.13 µM | 24.3 µM
CCOC(=O)CSc1nnc(CCCCc2nnc(SCC(=O)OCC)n2-c2ccccc2)n1-c1ccccc1 | 51.2 µM | 100 mg/L (≈ 172 µM) | 100 mg/L (≈ 172 µM) | 50 mg/L (≈ 86.1 µM) | 100 mg/L (≈ 172 µM) | 34.5 µM | 32.2 µM
CCN(CC)C(=O)Sc1nnc(CCCCc2nnc(SC(=O)N(CC)CC)n2-c2ccc(C)cc2)n1-c1ccc(C)cc1 | 3.45 µM | 25 mg/L (≈ 39.4 µM) | 12.5 mg/L (≈ 19.7 µM) | 12.5 mg/L (≈ 19.7 µM) | 25 mg/L (≈ 39.4 µM) | 3.23 µM | 8.17 µM
CCN(CC)C(=O)Sc1nnc(CCCCc2nnc(SC(=O)N(CC)CC)n2C2CCCCC2)n1C1CCCCC1 | 69.9 µM |  | 100 mg/L (≈ 162 µM) | 100 mg/L (≈ 162 µM) |  | 51.8 µM | 66.2 µM
CCN(CC)C(=O)Sc1nnc(CCCCc2nnc(SC(=O)N(CC)CC)n2-c2ccccc2)n1-c1ccccc1 | 14.3 µM | 50 mg/L (≈ 82.4 µM) | 25 mg/L (≈ 41.2 µM) | 12.5 mg/L (≈ 20.6 µM) | 50 mg/L (≈ 82.4 µM) | 19.3 µM | 14.9 µM
Cc1ccc(-n2c(CCCCc3nnc(SCC(=O)NN)n3-c3ccc(C)cc3)nnc2SCC(=O)NN)cc1 | 31.2 µM | 100 mg/L (≈ 172 µM) | 12.5 mg/L (≈ 21.5 µM) | 12.5 mg/L (≈ 21.5 µM) | 12.5 mg/L (≈ 21.5 µM) | 36.9 µM | 32.2 µM
CC1(C)S[C@@H]2[C@H](NC(=O)[C@H](N)c3ccccc3)C(=O)N2[C@H]1C(=O)O [AMPICILLIN] |  | 12.5 mg/L (≈ 35.8 µM) | 12.5 mg/L (≈ 35.8 µM) | 6.25 mg/L (≈ 17.9 µM) | 6.25 mg/L (≈ 17.9 µM) |  | 
NNC(=O)CSc1nnc(CCCCc2nnc(SCC(=O)NN)n2C2CCCCC2)n1C1CCCCC1 | 66.2 µM |  | 100 mg/L (≈ 177 µM) | 50 mg/L (≈ 88.5 µM) |  | 65.3 µM | 70.2 µM
COc1cccc2c1C(=O)c1c(O)c3c(c(O)c1C2=O)C[C@@](O)(C(=O)CO)C[C@@H]3O[C@H]1C[C@H](N)[C@H](O)[C@H](C)O1 [DOXORUBICIN] | 0.07 µM |  |  |  |  | 0.09 µM | 0.1 µM
CCOc1ccc(-n2c(CCCCc3nnc(SCC(=O)NN)n3-c3ccc(OCC)cc3)nnc2SCC(=O)NN)cc1 | 5.16 µM | 12.5 mg/L (≈ 19.5 µM) | 6.25 mg/L (≈ 9.75 µM) | 12.5 mg/L (≈ 19.5 µM) | 12.5 mg/L (≈ 19.5 µM) | 9.13 µM | 13.2 µM
NNC(=O)CSc1nnc(CCCCc2nnc(SCC(=O)NN)n2-c2ccccc2)n1-c1ccccc1 | 65.3 µM | 100 mg/L (≈ 181 µM) | 25 mg/L (≈ 45.2 µM) | 25 mg/L (≈ 45.2 µM) | 25 mg/L (≈ 45.2 µM) | 63.2 µM | 69.9 µM
CCOC(=O)CSc1nnc(CCCCc2nnc(SCC(=O)OCC)n2C2CCCCC2)n1C1CCCCC1 | 65.3 µM |  | 100 mg/L (≈ 169 µM) | 100 mg/L (≈ 169 µM) |  | 51.9 µM | 70.4 µM
CCOC(=O)CSc1nnc(CCCCc2nnc(SCC(=O)OCC)n2-c2ccc(OCC)cc2)n1-c1ccc(OCC)cc1 | 13.2 µM | 100 mg/L (≈ 150 µM) | 25 mg/L (≈ 37.4 µM) | 25 mg/L (≈ 37.4 µM) | 50 mg/L (≈ 74.8 µM) | 9.3 µM | 15.1 µM
CCCCn1c(CCCCc2nnc(SCC(=O)NN)n2CCCC)nnc1SCC(=O)NN | 63.4 µM |  | 100 mg/L (≈ 195 µM) | 100 mg/L (≈ 195 µM) |  | 69.3 µM | 59.8 µM
CCCCn1c(CCCCc2nnc(SCC(=O)OCC)n2CCCC)nnc1SCC(=O)OCC | 69.8 µM |  | 100 mg/L (≈ 185 µM) | 100 mg/L (≈ 185 µM) |  | 61.5 µM | 71.4 µM
CCCCn1c(CCCCc2nnc(SC(=O)N(CC)CC)n2CCCC)nnc1SC(=O)N(CC)CC | 64.5 µM |  |  |  |  | 63.1 µM | 70.3 µM
